# “And” between values parts separate entries of the source, which are not always exact repeats. Equal entries are not always repeated. Where two headings read alike, the source gives them in different places. Non-standard residues stand in square brackets, D forms with d. Residues, ends and D or L forms follow the SMILES beside them. *: point of attachment. Dolaproine = CO[C@@H]([C@@H]1CCCN1)[C@@H](C)C(=O)O; Dil = CC[C@H](C)[C@H](NC)[C@@H](CC(=O)O)OC; X1 = C[C@@H](N*)[C@@H](O)c1ccccc1; NMeV = CN[C@H](C(=O)O)C(C)C
# Assays:
# B16 cells = assay: Clonogenic survival with MMAE and 2 Gy (SF2); format: cell-based, murine; set-up: key to SF2: fraction surviving 2 Gy relative to non-irradiated cells; settings: for SF2: Figure 3d, six single replicates
# Experimental: Cells were treated with MMAE for 24 h and then irradiated with 2 Gy. […] Following IR, cells were counted, re-plated at varying cell numbers in drug free media. 10–14 days after initial seeding formed colonies were methanol fixed, stained with crystal violet, and counted. Surviving fraction at 2 Gy (SF2) was calculated as the fraction of cells surviving 2 Gy compared to non-irradiated cells.
# MOC2 tumors = assay: Orthotopic syngeneic tongue tumor therapy, tumor volumes; format: in vivo, C57BL/6 mice; settings: single 2.5 nmole i.v. injection
# Excerpt: Orthotopic tongue xenograft tumors were established in 6-week-old NOD SCID mice by injecting 150,000 CAL27 parental (WT) or PIK3CA H1047R-expressing cells. […] On the last day of tumor xenograft measurements, mice were euthanized, tongues resected, imaged, and fixed. […] IR was delivered as 2 parallel opposed fields.
# 6-week-old C57BL/6 female mice were implanted with 50,000 MOC2 cells into the tongue. […] Five days after treatment, tumors were isolated, minced, and re-suspended in FBS-free DMEM media supplemented with components of MACs tumor dissociation kit. Tissues were incubated for 15 min at 37 °C and mechanically digested using the gentle MACs Octo Dissociator. Digested samples were then passed through a 100-µm strainer to acquire a single-cell. For viability staining, cells were washed in PBS and stained with Cell-ID Cisplatin (DVS Sciences) to a final concentration of 5 μM for 5 min at room temperature. Cisplatin was quenched when cells were washed and stained with the antibody cocktail. Antibodies were prepared in Maxpar cell staining buffer (PBS with 2 mM EDTA, 0.1% BSA, 0.05% NaN3) and incubated with cells for 15 min at room temperature. […] Antibodies (clone in parenthesis) used for CyTOF included B220 (RA3-6B2), CD117(2B8), CD11c (N418), CD25 (3C7), CD4 (RM4-5), CD45 (30-F11), CD8a (53-6.7), MHC-II (M5/114.15.2), NKP46 (29A1.4), TCRb (H57-597) from Fluidigm. […]
# MOC1 tumors = assay: Subcutaneous tumor therapy, ADC monotherapy, mouse survival; format: in vivo, C57BL/6 mice
# Experimental: (§1) MOC1, B16, LL/2, and MC38 tumor cells were injected subcutaneously into the hindlimbs of 6-week-old female C57BL/6 albino mice in 100 µl of 1:1 Matrigel (BD) and PBS solution. Fractionated IR was delivered focally to the tumor-bearing hindlimbs (3 Gy to MC38 tumors and 5 Gy to LL/2 and B16 tumors) as indicated in figure legends using a PXI X-RAD 225 XL irradiator at maximal dose rate of 3 Gy/min with a beam-conditioning aluminum filter (Precision X-ray Irradiation). For RAG1 KO studies, 6-week-old female Rag1^tm1Mom mice were injected subcutaneously with tumor cells in their hindlimbs (Jackson Labs). For CD8 depletion studies, mice were i.p. injected with anti-CD8 (BioXCell #BE0117) at 10 mg/kg on days −6, −5 and −4 tumor cell implant and then weekly starting on day after tumor cells were injected or control antibody. […] Tumor volumes were measured and calculated using the formula as ½ * length * width^2. Mice were sacrificed when tumor volume reached >1500 mm^3, maximal tumor volume approved on our protocol for subcutaneous tumors.
# B16 tumors = tested on: B16 tumors; set-up: species or system RAG1 KO mice; settings: mouse, in vivo
# Experimental: FSC-A FSC-H SCC-H Live Dead-Blue
# Representative flow cytometry plots to gate immune cells quantitated in Fig. 4a, b, 4d &
# Supplementary Fig. 10b, c. b) Quantification of tumor immune cell identified by flow cytometry on
# Tumors harvested on day 19 and immune cells characterized by flow cytometry. c) Tumor
# granzyme B expression. Characterized CD8+ T-cells were further gated for granzyme-B staining
# (Clone:GB11). In addition, RNA levelsof tumor granzyme-B was analyzed by qPCR. For
# Mice implanted with tumor
# Log-rank (Mantel-Cox) test.
# Source data are provided in Source Data file. […]
# [1] = Mouse body weight (safety of MMAE with IR, with or without anti-PD-1); settings: ACPP-MMAE and IR
# Excerpt: LL/2 cells treated with dose range of MMAE overnight and then […] in drug free media for 7-10 days to allow for visualized colonies to form.
# Statistical significances calculated using one-way ANOVA with Tukey’s multiple comparisons test. 0.9 b) Cell cycle analysis […]
# of MMAE treated LL/2 cells, mean ± SD, n=2. […]
# experiments. c) Clonogenic survival of LL/2 cells treated with MMAE and 2 Gy (SF2). Cell Days viability normalized to non-irradiated cells for each drug condition and plotted as mean fractional survival ± SEM, n=6. Statistical significances calculated using one-way ANOVA with Sidak’s multiple comparisons test. d) Tumor volumes (n=10) and mouse body weights (n=5) of mice from experiments in Fig. 3e. Tumor volumes plotted as mean volume of surviving mice ± SEM.
# Mouse body weight were normalized to each mouse’s weight on day 0, i.e. tumor implantation.
# Data plotted as mean fractional body weight ± SEM. e) Mouse body weights of mice (n=5) from experiments in Fig. 4h were normalized to each mouse’s weight on day of tumor implantation.
# Data is plotted as individual normalized body weights. f) Mouse body weights of mice from experiments in Fig. 5e, f were normalized to each mouse’s weight on day of tumor implantation.
# Source data are provided in Source Data file.
# MC38 tumors = settings: status at the day printed in the same line, one line per mouse
# Experimental: as §1
compound,measurement,setting,value
"CC[C@H](C)[C@@H]([C@@H](CC(=O)N1CCC[C@H]1[C@H](OC)[C@@H](C)C(=O)N[C@H](C)[C@@H](O)c1ccccc1)OC)N(C)C(=O)[C@@H](NC(=O)[C@@H](NC)C(C)C)C(C)C [MMAE, monomethyl auristatin E] (H-[NMeV]V[Dil][Dolaproine]-X1)",SF2,B16 cells; MMAE 1 nM with 2 Gy,0.93 and 0.7 and 0.72 and 0.83 and 0.98
same,SF2,B16 cells; MMAE 2 nM with 2 Gy,0.57 and 0.61 and 0.48 and 0.63 and 0.74
same,SF2,B16 cells; MMAE 3 nM with 2 Gy,0.68 and 0.71 and 0.65 and 0.5 and 0.56
same,"radiosensitization, clonogenic cell death","B16 cells; murine tumor cells, single nanomolar doses of MMAE, 2 Gy",sensitized murine tumor cells to IR-mediated clonogenic cell death
"CDX3379-MMAE: anti-HER3 antibody CDX3379 with 4 MMAE per antibody via MC-VC-PABC linker, labeled with Cy5",tumor growth,MOC2 tumors,modest tumor growth delay
same,anti-tumor activity as measured by mouse survival,MOC1 tumors,modest anti-tumor activity
cyclo(RGD)fc-MC-HN-peg8-e9-oPLGC(Me)AG-r9-c-(MC-VC-PABC-MMAE)-CONH2 [ACPP-MMAE],tumor control in RAG1 KO mice,B16 tumors,did not appreciably increase tumor control in RAG1 KO mice compared to IR alone
same,adverse effects on mouse well-being by body weight,[1],no adverse effects
same,"Mouse survival, status",MC38 tumors; ACPP-MMAE + IR + αPD1,1 and 0
same,"Mouse survival, status",MC38 tumors; ACPP-MMAE + IR,1
